Experimental data: publication PMC7277860, “Viridistratins A−C, Antimicrobial and Cytotoxic Benzo[j]fluoranthenes from Stromata of Annulohypoxylon viridistratum (Hypoxylaceae, Ascomycota)” (Biomolecules, 2020)
Values after ≈ are worked out from the molar mass of the structure shown.

Experiments:
Test in all cases: MIC serial dilution assay
Format in all cases: cell-based
[1] = tested on: Mycolicibacterium smegmatis; conditions: Mycolicibacterium smegmatis ATCC700084; overnight, 37 °C; reference kanamycin 0.1 mg/mL
Method: (§1) Compounds 1, 2, 4 and 5 were dissolved in MeOH (1 mg/mL) for the antimicrobial activity assay, while compound 3 was dissolved in MeOH: DMSO 9+1 (1 mg/mL). The solvents were also used as negative controls.
(§2) Minimum inhibitory concentrations (MIC) were determined in a serial dilution assay, as described previously; a detailed protocol can be found in the Supporting Information. The compounds (1 mg/mL) were diluted to a range of 66.7 to 0.52 µg/mL and incubated with the test organisms overnight. Inhibition of growth was visually evaluated the next day: the MIC is defined as the lowest concentration of the test compound where no growth of the test organism was observed. Various test organisms of fungal and bacterial origin were tested to cover a broad range of microorganisms. This selection is also being used as a standard test panel in our attempts to discover new anti-infectives, as it represents a broad spectrum of pathogens of clinical interest, as well as sensitive indicator strains (bacteria: Bacillus subtilis, Staphylococcus aureus, Micrococcus luteus, Chromobacterium violaceum, Escherichia coli and Pseudomonas aeruginosa; mycobacteria: Mycolicibacterium smegmatis and fungi: Candida albicans, Schizosaccharomyces pombe, Mucor hiemalis, Pichia anomala and Rhodotorula glutinis).
(§3) Protocol: Antimicrobial Activi ty Assay
(§4) The assay was conducted as a minimum inhi bitory concentration (MIC) assay in 96-well ro und-bottom mi crotiter pl ate s usi ng the p ar ameter s su mm ari zed i n T a bl e S 1 and as already described i n [S1].
(§5) Stocks of the test organi sms were generated by growing the organisms o ver ni ght i n 50 mL shaki ng fl asks fi ll ed wi th 25 mL of the growth medi um at 140 rpm (for media and temperatures see Table S1). If the organisms were well grown the ne xt day, which was checked by occurrence of an optical density (OD)>30 of the suspension (OD600 nm for bacteria, OD548 nm for fungi and M. smegma tis) , aliquots of these were stored i n 1.5 mL reaction tube s in a freezer at −80 °C for up to 12 mo nths . Upon use, aliquots were unth awed and the OD of the suspension measured and adjusted by diluting with the respective growth medi um. OD600 nm w as adj usted to 0.01 and OD548 nm to 0.1.
(§6) Subse que ntly, 150 µL o f the adjusted suspensions were added to all wells of a 96-wel l microtiter pl ate (one test organi sm per plate). In row A, additional 130 µL of suspensions plus 20 µL of the test compounds (1 mg/mL) and the controls (one compound/column) were added. MeOH as well as MeOH:DMSO 9+1 were used as negative controls, while different positive controls (refer ences) were used for the test organisms (see Tabl e S1). Then, starti ng from row A, 150 µ L of the suspension were transferred to the next row, the contents thoroughly mixed, and 150 µ L transferred to the following row.
(§7) The remaining 150 µ L after row H were discarded. […]
(§8) compounds, ranging from 66.7 µg/mL i n row A to 0.52 µg/mL i n row H.
(§9) The microtiter plates were then incubated overnight o n a microplate shaker at 800 rpm at 30 or 37 °C (see Table S1) and were visually evaluated the next day. The MIC is defined as the lowest concentration were no growth of the test organism was o bserved. A lower MIC thus corresponds to a higher antimicrobial activity of the test compound.
(§10) Table S1: MIC assay ex per i men t parameters test organism strain No. growth incubation positive control (reference) […]
(§11) Rhodotorula glutinis DSM10134 MYC 3 30 nyst ati n 1.0 mg/mL
(§12) 1 MHB: Müller-Hinton Broth (SN X927.1, Ca r l Roth GmbH, Karlsruhe, Germany) 2 7H9+ADC: Middlebrook 7H9 Broth Base + Middlebrook ADC Growth Supplement (SN M0678+M0553, Merck, Darmstadt, Germany)
(§13) 3 MYC: 1 % w/v, bacto peptone, 1% w/v yeast extract, 2 % w /v glycerol, pH 6.3 [S1] Helaly, S.E.; Ashrafi, S.; Teponno, R.B.; Bernecker, S.; Dababat, A.A.; Maier, W.; Stadler, M.
(§14) Nematicidal Cyclic Lipodepsipeptides and a Xanthocillin Derivative from a Phaeosphariaceous […]

[2] = tested on: Schizosaccharomyces pombe; conditions: Schizosaccharomyces pombe DSM70572; overnight, 30 °C; reference nystatin 1 mg/mL
Method: as §1, §2, §3, §4, §5, §6, §7, §8, §9, §10
Schizosaccharomyces DSM70572 MYC 3 30 nyst ati n 1.0 mg/mL […]
as §11, §12, §13, §14

[3] = tested on: Pichia anomala; conditions: Pichia anomala DSM6766; overnight, 30 °C; reference nystatin 1 mg/mL
Method: as §1, §2, §3, §4, §5, §6, §7, §8, §9, §10
Pichia anomala DSM6766 MYC 3 30 nyst ati n 1.0 mg/mL
as §11, §12, §13, §14

[4] = tested on: Rhodotorula glutinis; conditions: Rhodotorula glutinis DSM10134; overnight, 30 °C; reference nystatin 1 mg/mL
Method: as §1, §2, §3, §4, §5, §6, §7, §8, §9, §10, §11, §12, §13, §14

[5] = tested on: Candida albicans; conditions: Candida albicans DSM1665; overnight, 30 °C; reference nystatin 1 mg/mL
Method: as §1, §2, §3, §4, §5, §6, §7, §8, §9, §10
Candida albicans DSM1665 MYC 3 30 nyst ati n 1.0 mg/mL […]
as §11, §12, §13, §14

[6] = tested on: Mucor hiemalis; conditions: Mucor hiemalis DSM2656; overnight, 30 °C; reference nystatin 1 mg/mL
Method: as §1, §2, §3, §4, §5, §6, §7, §8, §9, §10
Mucor hiemalis DSM2656 MYC 3 30 nyst ati n 1.0 mg/mL […]
as §11, §12, §13, §14

[7] = tested on: Staphylococcus aureus; conditions: Staphylococcus aureus DSM346; overnight, 30 °C; reference oxytetracycline 0.1 mg/mL; read-out: Minimum Inhibitory Concentration (MIC)
Method: as §1, §2, §3, §4, §5, §6, §7, §8, §9, §10
Staphylococcus aureus DSM346 MHB 1 30 oxytetr acyclin 0.1 mg/mL […]
as §11, §12, §13, §14

[8] = tested on: Escherichia coli; conditions: Escherichia coli DSM1116; overnight, 37 °C; reference oxytetracycline 0.1 mg/mL; read-out: Minimum Inhibitory Concentration (MIC)
Method: as §1, §2, §3, §4, §5, §6, §7, §8, §9, §10
Escherichia coli DSM1116 MHB 1 37 oxytetr acyclin 0.1 mg/mL […]
as §11, §12, §13, §14

[9] = tested on: Micrococcus luteus; conditions: Micrococcus luteus, DSM1790, Micrococcus luteus DSM1790; overnight, 30 °C; reference oxytetracycline 0.1 mg/mL; read-out: Minimum Inhibitory Concentration (MIC)
Method: as §1, §2, §3, §4, §5, §6, §7, §8, §9, §10
Micrococcus luteu s DSM1790 MHB 1 30 oxytetr acyclin 0.1 mg/mL […]
as §11, §12, §13, §14

[10] = tested on: Chromobacterium violaceum; conditions: Chromobacterium violaceum DSM30191; overnight, 30 °C; reference oxytetracycline 0.1 mg/mL; read-out: Minimum Inhibitory Concentration (MIC)
Method: as §1, §2, §3, §4, §5, §6, §7, §8, §9, §10
Chromobacterium DSM30191 MHB 1 30 oxytetr acyclin 0.1 mg/mL […]
as §11, §12, §13, §14

[11] = tested on: Bacillus subtilis; conditions: Bacillus subtilis DSM10; overnight, 30 °C; reference oxytetracycline 1 mg/mL; read-out: Minimum Inhibitory Concentration (MIC)
Method: as §1, §2, §3, §4, §5, §6, §7, §8, §9, §10
Bacillus subtilis DSM10 MHB 1 30 oxytetr acyclin 1.0 mg/mL […]
as §11, §12, §13, §14

NC[C@H]1O[C@H](O[C@H]2[C@H](O)[C@@H](O[C@H]3O[C@H](CO)[C@@H](O)[C@H](N)[C@H]3O)[C@H](N)C[C@@H]2N)[C@H](O)[C@@H](O)[C@@H]1O [kanamycin, reference compound]
Minimum Inhibitory Concentration (MIC) [1]: 3.3 ^4 µg/mL

C[C@@H]1[C@H](O)[C@@H](C)/C=C/C=C/CC/C=C/C=C/C=C/C=C/C(O[C@H]2O[C@H](C)[C@@H](O)[C@H](N)[C@@H]2O)CC2O[C@](O)(CC(O)C(O)CCC(O)CC(O)CC(O)CC(=O)O[C@H]1C)CC(O)C2C(=O)O (some centres unmarked) [nystatin, reference compound]
Minimum Inhibitory Concentration (MIC) [2]: 33.3 ^5 µg/mL | Minimum Inhibitory Concentration (MIC) [3]: 66.7 ^5 µg/mL | Minimum Inhibitory Concentration (MIC) [4]: 16.7 ^5 µg/mL | Minimum Inhibitory Concentration (MIC) [5]: 66.7 ^5 µg/mL | Minimum Inhibitory Concentration (MIC) [6]: 66.7 ^5 µg/mL

CN(C)[C@@H]1C(O)=C(C(N)=O)C(=O)[C@@]2(O)C(O)=C3C(=O)c4c(O)cccc4[C@@](C)(O)[C@H]3[C@H](O)[C@@H]12 [oxytetracycline, reference compound]
MIC [7]: 0.4 µg/mL (≈ 0.869 µM) | MIC [8]: 1.7 µg/mL (≈ 3.69 µM) | MIC [9]: 0.8 µg/mL (≈ 1.74 µM) | MIC [10]: 0.1 µg/mL (≈ 0.217 µM) | MIC [11]: 8.3 µg/mL (≈ 18 µM)
